In brackets after ≈: the same amount, converted by molar mass.
Legend:
Format in all cases: functional
Escherichia coli = experiment: Antibacterial activity against Escherichia coli ATCC 15022 measured after 24 hrs; conditions: ATCC 15022, 24 h
Bacillus subtilis = experiment: Antibacterial activity against Bacillus subtilis ATCC 11774 measured after 24 hrs; conditions: ATCC 11774, 24 h
Staphylococcus aureus = experiment: Antibacterial activity against Staphylococcus aureus ATCC 29213 measured after 24 hrs; conditions: ATCC 29213, 24 h
Pseudomonas aeruginosa = experiment: Antibacterial activity against Pseudomonas aeruginosa ATCC 9027 measured after 24 hrs; conditions: ATCC 9027, 24 h

IC50 (Escherichia coli) [µg/mL]	IC50 (Bacillus subtilis) [µg/mL]	IC50 (Staphylococcus aureus) [µg/mL]	IC50 (Pseudomonas aeruginosa) [µg/mL]	SMILES
> 1000	23 (≈ 96.5 µM)	4.6 (≈ 19.3 µM)	> 1000	CCCCCc1c(O)cc(CCCC)oc1=O
> 1000	0.7 (≈ 2.38 µM)	0.04 (≈ 0.136 µM)	> 1000	CCCCCCCc1c(O)cc(CCCCCC)oc1=O
> 1000	24 (≈ 74.4 µM)	> 1000	> 1000	CCCCCCCCc1c(O)cc(CCCCCCC)oc1=O
> 1000	46 (≈ 219 µM)	33 (≈ 157 µM)	> 1000	CCCCc1c(O)cc(CCC)oc1=O
> 1000	3.3 (≈ 12.4 µM)	2.4 (≈ 9.01 µM)	> 1000	CCCCCCc1c(O)cc(CCCCC)oc1=O
248 (≈ 1110 µM)	1000 (≈ 4460 µM)	46 (≈ 205 µM)	> 1000	CCCC(=O)c1c(O)cc(CCC)oc1=O
278 (≈ 1530 µM)	203 (≈ 1110 µM)	244 (≈ 1340 µM)	> 1000	CCCc1c(O)cc(CC)oc1=O
223 (≈ 884 µM)	227 (≈ 900 µM)	24 (≈ 95.1 µM)	> 1000	CCCCC(=O)c1c(O)cc(CCCC)oc1=O
> 1000	0.3 (≈ 1.02 µM)	0.1 (≈ 0.34 µM)	> 1000	CCCCCCCc1cc(O)c(CCCCCC)c(=O)o1 [PSEUDOPYRONINES B]

Continued, compound first:

SMILES	IC50 (Escherichia coli) [µg/mL]	IC50 (Bacillus subtilis) [µg/mL]	IC50 (Staphylococcus aureus) [µg/mL]	IC50 (Pseudomonas aeruginosa) [µg/mL]
CCCCCCC(=O)c1c(O)cc(CCCCCC)oc1=O	> 1000	3.5 (≈ 11.3 µM)	1.5 (≈ 4.86 µM)	> 1000
CCC(=O)c1c(O)cc(CC)oc1=O	257 (≈ 1310 µM)	> 1000	116 (≈ 591 µM)	> 1000
CCCCCC(=O)c1c(O)cc(CCCCC)oc1=O	> 1000	21 (≈ 74.9 µM)	3.8 (≈ 13.6 µM)	> 1000
CCCCCCCCC(=O)c1c(O)cc(CCCCCCCC)oc1=O	> 1000	> 1000	> 1000	> 1000
CCc1c(O)cc(C)oc1=O	300 (≈ 1950 µM)	> 1000	> 1000	> 1000
CCCCCCCCCc1c(O)cc(CCCCCCCC)oc1=O	> 1000	> 1000	> 1000	> 1000
CCCCCCCC(=O)c1c(O)cc(CCCCCCC)oc1=O	> 1000	27 (≈ 80.2 µM)	48 (≈ 143 µM)	> 1000
